Measurements published in publication PMC5813499 (Bioorganic & medicinal chemistry, 2017).

Experiments:
[1] = biological target: allosteric site of the mGluR5 receptor (Homo sapiens, UniProt P41594); assay: PDSP binding at the allosteric site of the mGluR5 receptor; settings: binding affinity at allosteric site; type of constant not given
[2] = biological target: L-type Voltage gated calcium Channel (VGCC) (Rattus norvegicus, UniProt P22002); assay: PDSP binding at the L-type voltage gated calcium channel; settings: for VGCC (IC50, nM): PDSP screening
Sequence of L-type Voltage gated calcium Channel (VGCC) (P22002 whole entry): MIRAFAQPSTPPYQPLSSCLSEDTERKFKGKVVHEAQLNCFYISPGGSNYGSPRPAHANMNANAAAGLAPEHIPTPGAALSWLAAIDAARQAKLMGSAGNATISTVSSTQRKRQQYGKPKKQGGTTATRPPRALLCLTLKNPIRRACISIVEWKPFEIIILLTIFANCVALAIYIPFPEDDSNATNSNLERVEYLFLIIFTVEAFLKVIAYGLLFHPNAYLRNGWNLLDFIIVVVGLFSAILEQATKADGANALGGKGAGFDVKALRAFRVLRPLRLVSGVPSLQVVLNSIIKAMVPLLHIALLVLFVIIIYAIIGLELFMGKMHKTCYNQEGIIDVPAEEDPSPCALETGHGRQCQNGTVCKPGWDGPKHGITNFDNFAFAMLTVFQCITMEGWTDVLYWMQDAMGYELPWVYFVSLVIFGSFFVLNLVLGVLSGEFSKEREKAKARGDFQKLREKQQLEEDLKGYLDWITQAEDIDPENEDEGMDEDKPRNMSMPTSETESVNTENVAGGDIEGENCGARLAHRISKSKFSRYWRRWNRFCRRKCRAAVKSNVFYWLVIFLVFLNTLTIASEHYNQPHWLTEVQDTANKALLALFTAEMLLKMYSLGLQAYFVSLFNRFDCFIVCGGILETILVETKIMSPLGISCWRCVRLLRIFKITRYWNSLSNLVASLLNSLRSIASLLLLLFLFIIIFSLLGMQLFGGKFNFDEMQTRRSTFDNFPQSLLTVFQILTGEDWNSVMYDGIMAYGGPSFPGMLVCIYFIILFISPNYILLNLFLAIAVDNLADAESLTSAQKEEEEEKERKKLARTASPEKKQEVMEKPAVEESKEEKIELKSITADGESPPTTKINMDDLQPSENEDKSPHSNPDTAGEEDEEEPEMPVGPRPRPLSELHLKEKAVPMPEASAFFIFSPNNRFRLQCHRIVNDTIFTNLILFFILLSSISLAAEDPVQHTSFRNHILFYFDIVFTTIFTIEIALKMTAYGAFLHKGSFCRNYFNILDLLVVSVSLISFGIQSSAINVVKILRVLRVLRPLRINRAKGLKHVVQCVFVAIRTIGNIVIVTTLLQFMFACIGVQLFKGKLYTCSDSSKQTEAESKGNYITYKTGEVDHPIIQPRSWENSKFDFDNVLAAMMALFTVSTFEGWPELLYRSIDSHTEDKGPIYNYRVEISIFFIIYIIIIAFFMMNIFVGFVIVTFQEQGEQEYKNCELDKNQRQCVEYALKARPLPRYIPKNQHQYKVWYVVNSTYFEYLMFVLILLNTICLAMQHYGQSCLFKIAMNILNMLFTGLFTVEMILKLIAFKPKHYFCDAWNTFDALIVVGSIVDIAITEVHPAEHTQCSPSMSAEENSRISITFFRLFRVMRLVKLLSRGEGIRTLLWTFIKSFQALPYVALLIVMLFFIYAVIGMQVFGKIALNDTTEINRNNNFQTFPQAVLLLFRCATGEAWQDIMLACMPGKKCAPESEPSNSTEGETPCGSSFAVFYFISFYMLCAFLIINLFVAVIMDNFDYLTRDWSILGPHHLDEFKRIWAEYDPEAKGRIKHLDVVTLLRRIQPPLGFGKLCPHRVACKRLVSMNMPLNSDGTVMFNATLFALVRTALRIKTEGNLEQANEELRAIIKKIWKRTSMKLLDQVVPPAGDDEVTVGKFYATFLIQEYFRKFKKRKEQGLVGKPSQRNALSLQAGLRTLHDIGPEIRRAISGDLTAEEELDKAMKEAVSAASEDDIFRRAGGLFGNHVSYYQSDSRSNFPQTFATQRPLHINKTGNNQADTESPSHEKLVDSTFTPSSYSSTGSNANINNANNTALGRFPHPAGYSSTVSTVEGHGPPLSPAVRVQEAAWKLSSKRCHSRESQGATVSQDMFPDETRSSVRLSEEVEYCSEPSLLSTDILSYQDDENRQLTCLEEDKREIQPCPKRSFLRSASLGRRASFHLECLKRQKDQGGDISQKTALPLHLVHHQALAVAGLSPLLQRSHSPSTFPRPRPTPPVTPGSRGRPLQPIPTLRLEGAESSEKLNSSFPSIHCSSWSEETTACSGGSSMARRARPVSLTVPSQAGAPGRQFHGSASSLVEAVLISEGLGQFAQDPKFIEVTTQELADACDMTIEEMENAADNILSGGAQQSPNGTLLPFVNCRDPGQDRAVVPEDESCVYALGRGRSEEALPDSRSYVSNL

Sequence of allosteric site of the mGluR5 receptor (P41594 21-1212): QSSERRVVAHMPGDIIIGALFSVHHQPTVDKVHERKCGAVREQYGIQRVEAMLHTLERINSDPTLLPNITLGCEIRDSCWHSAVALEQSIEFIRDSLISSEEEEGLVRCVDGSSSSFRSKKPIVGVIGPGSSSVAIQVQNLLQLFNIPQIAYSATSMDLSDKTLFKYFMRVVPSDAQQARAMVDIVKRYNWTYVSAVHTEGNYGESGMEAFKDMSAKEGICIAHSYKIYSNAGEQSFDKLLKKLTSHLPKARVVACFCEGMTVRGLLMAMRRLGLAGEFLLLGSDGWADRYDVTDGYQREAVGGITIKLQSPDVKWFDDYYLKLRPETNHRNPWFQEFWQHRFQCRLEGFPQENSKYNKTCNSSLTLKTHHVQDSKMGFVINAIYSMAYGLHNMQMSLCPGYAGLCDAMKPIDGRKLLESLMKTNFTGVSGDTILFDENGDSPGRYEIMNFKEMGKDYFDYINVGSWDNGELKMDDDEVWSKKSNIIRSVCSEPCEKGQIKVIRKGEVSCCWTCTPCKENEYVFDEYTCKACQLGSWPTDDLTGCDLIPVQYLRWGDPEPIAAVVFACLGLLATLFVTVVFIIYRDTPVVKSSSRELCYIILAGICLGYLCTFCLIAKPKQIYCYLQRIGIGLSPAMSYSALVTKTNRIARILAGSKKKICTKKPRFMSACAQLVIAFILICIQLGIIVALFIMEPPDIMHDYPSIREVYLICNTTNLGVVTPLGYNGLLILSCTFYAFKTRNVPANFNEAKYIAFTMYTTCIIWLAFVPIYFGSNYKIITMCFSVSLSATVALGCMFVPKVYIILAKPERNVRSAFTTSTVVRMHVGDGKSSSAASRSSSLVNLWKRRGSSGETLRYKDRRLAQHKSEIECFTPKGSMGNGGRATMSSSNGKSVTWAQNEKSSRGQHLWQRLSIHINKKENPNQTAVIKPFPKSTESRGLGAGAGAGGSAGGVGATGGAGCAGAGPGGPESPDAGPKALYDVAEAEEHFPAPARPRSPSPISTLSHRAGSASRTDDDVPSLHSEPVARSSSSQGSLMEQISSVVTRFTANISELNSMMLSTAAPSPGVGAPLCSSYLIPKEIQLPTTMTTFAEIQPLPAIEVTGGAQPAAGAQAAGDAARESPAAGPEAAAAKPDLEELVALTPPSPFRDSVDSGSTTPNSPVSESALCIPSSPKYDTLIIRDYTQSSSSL

Structure (SMILES)	mGluR5 [1] [µM]	mGluR5 (nM) [1]	other results
CCOC(=O)C1=C(C)NC(C)=C(C(=O)OCC)C1c1c(-c2ccccc2Br)noc1C [1b, 4-[3-(o-Bromo-phenyl)-5-methyl-isoxazol-4-yl]-2,6-dimethyl-1,4-dihydro-pyridine-3,5-dicarboxylic acid diethyl ester]	1.524	–	–
CCOC(=O)C1=C(C)NC(C)=C(C(=O)OCC)C1c1c(-c2cccc(Br)c2)noc1C [1c, 4-[3-(m-Bromo-phenyl)-5-methyl-isoxazol-4-yl]-2,6-dimethyl-1,4-dihydro-pyridine-3,5-dicarboxylic acid diethyl ester]	–	>10,000 nM	–
CCOC(=O)C1=C(C)NC(C)=C(C(=O)OCC)C1c1c(-c2ccc(Br)cc2)noc1C [1d, 4-[3-(p-bromo-phenyl)-5-methyl-isoxazol-4-yl]-2,6-dimethyl-1,4-dihydro-pyridine-3,5-dicarboxylic acid diethyl ester]	–	>10,000 nM	VGCC potency ratio of 1d versus o-Br 1b ([2]; fold more potent than 1b): over 25 times
CCOC(=O)C1=C(C)NC(C)=C(C(=O)OCc2cn(CCOCCOCCOCCOCCOCCn3cc(COC(=O)C4=C(C)NC(C)=C(C(=O)OCC)C4c4c(-c5ccccc5)noc4C)nn3)nn2)C1c1c(-c2ccccc2)noc1C (stereo not shown) [4a, 3-(1-{17-[4-({[5-(Ethoxycarbonyl)-2,6-dimethyl-4-(5-methyl-3-phenyl-1,2-oxazol-4-yl)-1,4-dihydropyridin-3-yl]carbonyloxy}methyl)-1H-1,2,3-triazol-1-yl]-3,6,9,12,15-pentaoxaheptadecan-1-yl}-1H-1,2,3-triazol-4-yl)methyl 5-ethyl 2,6-dimethyl-4-(5-methyl-3-phenyl-1,2-oxazol-4-yl)-1,4-dihydropyridine-3,5-dicarboxylate]	–	>10,000 nM	–
CCOC(=O)C1=C(C)NC(C)=C(C(=O)OCc2cn(CCOCCOCCOCCOCCOCCn3cc(COC(=O)C4=C(C)NC(C)=C(C(=O)OCC)C4c4c(-c5ccccc5Br)noc4C)nn3)nn2)C1c1c(-c2ccccc2Br)noc1C (stereo not shown) [4b, 3-[1-(17-{4-[({4-[3-(o-Bromophenyl)-5-methyl-1,2-oxazol-4-yl]-5-(ethoxycarbonyl)-2,6-dimethyl-1,4-dihydropyridin-3-yl}carbonyloxy)methyl]-1H-1,2,3-triazol-1-yl}-3,6,9,12,15-pentaoxaheptadecan-1-yl)-1H-1,2,3-triazol-4-yl]methyl 5-ethyl 4-[3-(o-bromophenyl)-5-methyl-1,2-oxazol-4-yl]-2,6-dimethyl-1,4-dihydropyridine-3,5-dicarboxylate]	4.858	–	VGCC (IC50, nM) [2]: essentially abolished
CCOC(=O)C1=C(C)NC(C)=C(C(=O)OCc2cn(CCOCCOCCOCCOCCOCCn3cc(COC(=O)C4=C(C)NC(C)=C(C(=O)OCC)C4c4c(-c5cccc(Br)c5)noc4C)nn3)nn2)C1c1c(-c2cccc(Br)c2)noc1C (stereo not shown) [4c, 3-[1-(17-{4-[({4-[3-(m-bromophenyl)-5-methyl-1,2-oxazol-4-yl]-5-(ethoxycarbonyl)-2,6-dimethyl-1,4-dihydropyridin-3-yl}carbonyloxy)methyl]-1H-1,2,3-triazol-1-yl}-3,6,9,12,15-pentaoxaheptadecan-1-yl)-1H-1,2,3-triazol-4-yl]methyl 5-ethyl 4-[3-(m-bromophenyl)-5-methyl-1,2-oxazol-4-yl]-2,6-dimethyl-1,4-dihydropyridine-3,5-dicarboxylate]	8.638	–	–
CCOC(=O)C1=C(C)NC(C)=C(C(=O)OCc2cn(CCc3ccccc3)nn2)C1c1c(-c2ccc(Br)cc2)noc1C (stereo not shown) [compound 5, 4-[3-(p-Bromo-phenyl)-5-methyl-isoxazol-4-yl]-2,6-dimethyl-1,4-dihydro-pyridine 3,5-dicarboxylic acid 3-ethyl ester 5-(1-phenethyl-1H-[1,2,3]triazol-4-ylmethyl) ester]	1.972	–	–
CCOC(=O)c1c(C)nc(C)c(C(=O)OCC)c1-c1c(-c2ccccc2)noc1C [compound 6, 2,6-dimethyl-4-(5-methyl-3-phenyl-isoxazol-4-yl)-pyridine-3,5-dicarboxylic acid diethyl ester]	–	–	VGCC (IC50, nM) [2]: essentially bereft of activity
